Biological target: human PDE10A (Homo sapiens (Human), UniProt Q9Y233)
Test: human PDE10A full length Scintillation Proximity Assay (SPA)
Assay type: biochemical
Conditions: 50 nM cGMP and 50 nM [3H]-cGMP, 20 minutes at room temperature, read-out: PDE10A inhibition IC50
Procedure: The following test was carried out in order to determine the activity of the compounds of the present invention. PDE10 activity of the compounds of the present invention was determined using a Scintillation Proximity Assay (SPA)-based method similar to the one previously described (Fawcett, L. et al., Proc Natl Acad Sci USA (2000) 97(7):3702-3707).
The human PDE10A full length assay was performed in 96-well micro titer plates. The reaction mixture of 50 μl contained 20 mM HEPES pH=7.5/10 mM MgCl2/0.05 mg/ml BSA (Sigma cat. # A-7906), 50 nM cGMP (Sigma, cat. # G6129) and 50 nM [^3H]-cGMP (GE Healthcare, cat. # TRK392 S.A. 13.2Ci/mmol), 3.75 ng/well PDE10A enzyme (Enzo Life Science, Lausen, Switzerland cat # SE-534) with or without a specific test compound. A range of concentrations of the potential inhibitor was used to generate data for calculating the concentration of inhibitor resulting in 50% of the effect (e.g. IC50, the concentration of the competitor inhibiting PDE10A activity by 50%). Non-specific activity was tested without the enzyme. The reaction was initiated by the addition of the substrate solution (cGMP and [^3H]-cGMP) and allowed to progress for 20 minutes at room temperature. The reaction was terminated by adding 25 μA of YSi-SPA scintillation beads (GE Healthcare, cat. # RPNQ0150) in 18 mM zinc sulphate solution (stop reagent). After 1 h under shaking, the plate was centrifuged one minute at 170 g to allow beads to settle. Afterwards, radioactive counts were measured on a Perkin Elmer TopCount Scintillation plate reader.

human PDE10A, sequence (Q9Y233 other isoform, or with tags, fused parts or gaps): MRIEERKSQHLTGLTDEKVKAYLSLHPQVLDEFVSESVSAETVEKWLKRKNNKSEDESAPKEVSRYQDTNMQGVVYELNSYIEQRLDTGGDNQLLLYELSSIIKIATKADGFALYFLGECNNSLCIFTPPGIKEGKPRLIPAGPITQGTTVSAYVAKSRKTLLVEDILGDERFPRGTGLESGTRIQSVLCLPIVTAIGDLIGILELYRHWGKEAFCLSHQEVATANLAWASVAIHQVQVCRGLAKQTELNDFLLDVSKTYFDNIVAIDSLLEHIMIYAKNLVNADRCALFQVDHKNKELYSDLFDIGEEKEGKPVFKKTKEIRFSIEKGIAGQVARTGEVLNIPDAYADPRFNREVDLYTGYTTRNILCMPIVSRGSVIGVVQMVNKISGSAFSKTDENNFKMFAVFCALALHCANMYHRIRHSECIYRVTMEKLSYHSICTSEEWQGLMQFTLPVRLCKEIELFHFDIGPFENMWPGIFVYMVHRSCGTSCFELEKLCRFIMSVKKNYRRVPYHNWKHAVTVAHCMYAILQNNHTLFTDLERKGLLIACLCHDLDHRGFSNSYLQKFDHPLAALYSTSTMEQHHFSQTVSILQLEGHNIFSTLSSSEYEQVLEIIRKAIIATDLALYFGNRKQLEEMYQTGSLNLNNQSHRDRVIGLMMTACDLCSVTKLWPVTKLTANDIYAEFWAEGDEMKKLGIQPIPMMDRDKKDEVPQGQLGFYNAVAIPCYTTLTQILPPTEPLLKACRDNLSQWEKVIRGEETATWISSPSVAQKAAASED

Structure (SMILES)	IC50 [nM]
O=C(Nc1nnc(-c2cnccn2)s1)c1nc(C2CC2)ccc1Nc1cncnc1 [Example 49, 6-Cyclopropyl-3-(pyrimidin-5-ylamino)-pyridine-2-carboxylic acid (5-pyrazin-2-yl-[1,3,4]thiadiazol-2-yl)-amide]	744
CCc1ccc(Nc2cncnc2)c(C(=O)Nc2cc(-c3ccccn3)nn2C)n1 [Example 19, 6-Ethyl-3-(pyrimidin-5-ylamino)-pyridine-2-carboxylic acid (2-methyl-5-pyridin-2-yl-2H-pyrazol-3-yl)-amide]	2
O=C(Nc1cc(-c2ccccn2)nn1C1CCCCC1)c1nc(C2CC2)ccc1Nc1cncnc1 [Example 14, 6-Cyclopropyl-3-(pyrimidin-5-ylamino)-pyridine-2-carboxylic acid (2-cyclohexyl-5-pyridin-2-yl-2H-pyrazol-3-yl)-amide]	1
Cn1nc(-c2ccc3ccccc3n2)cc1NC(=O)c1nc(C2CC2)ccc1Nc1cncnc1 [Example 40, 6-Cyclopropyl-3-(pyrimidin-5-ylamino)-pyridine-2-carboxylic acid (2-methyl-5-quinolin-2-yl-2H-pyrazol-3-yl)-amide]	< 1
COCCn1nc(-c2ccccn2)cc1NC(=O)c1nc(C2CC2)ccc1Nc1cncnc1 [Example 38, 6-Cyclopropyl-3-(pyrimidin-5-ylamino)-pyridine-2-carboxylic acid [2-(2-methoxy-ethyl)-5-pyridin-2-yl-2H-pyrazol-3-yl]-amide]	< 1
O=C(Nc1nnc(-c2ccc(F)cc2)s1)c1nc(C2CC2)ccc1Nc1cncnc1 [Example 45, 6-Cyclopropyl-3-(pyrimidin-5-ylamino)-pyridine-2-carboxylic acid [5-(4-fluoro-phenyl)-[1,3,4]thiadiazol-2-yl]-amide]	6380
O=C(Nc1nnc(-c2ccccc2)s1)c1nc(C2CC2)ccc1Nc1cncnc1 [Example 48, 6-Cyclopropyl-3-(pyrimidin-5-ylamino)-pyridine-2-carboxylic acid (5-phenyl-[1,3,4]thiadiazol-2-yl)-amide]	435
O=C(Nc1cc(-c2ccccn2)nn1C1CCOCC1)c1nc(C2CC2)ccc1Nc1cncnc1 [Example 20, 6-Cyclopropyl-3-(pyrimidin-5-ylamino)-pyridine-2-carboxylic acid [5-pyridin-2-yl-2-(tetrahydro-pyran-4-yl)-2H-pyrazol-3-yl]-amide]	1
O=C(Nc1cc(-c2ccccc2)no1)c1nc(C2CC2)ccc1Nc1cncnc1 [Example 46, 6-Cyclopropyl-3-(pyrimidin-5-ylamino)-pyridine-2-carboxylic acid (3-phenyl-isoxazol-5-yl)-amide]	612
CCn1nc(-c2ccccn2)cc1NC(=O)c1nc(C2CC2)ccc1Nc1cncnc1 [Example 30, 6-Cyclopropyl-3-(pyrimidin-5-ylamino)-pyridine-2-carboxylic acid (2-ethyl-5-pyridin-2-yl-2H-pyrazol-3-yl)-amide]	5
COc1ccc(-c2nnc(NC(=O)c3nc(C4CC4)ccc3Nc3cncnc3)s2)cc1 [Example 44, 6-Cyclopropyl-3-(pyrimidin-5-ylamino)-pyridine-2-carboxylic acid [5-(4-methoxy-phenyl)-[1,3,4]thiadiazol-2-yl]-amide]	1880
O=C(Nc1cc(-c2ccc(Br)cc2)no1)c1nc(C2CC2)ccc1Nc1cncnc1 [Example 57, 6-Cyclopropyl-3-(pyrimidin-5-ylamino)-pyridine-2-carboxylic acid [3-(4-bromo-phenyl)-isoxazol-5-yl]-amide]	781
COCc1ncc(Nc2cncnc2)c(C(=O)Nc2cc(-c3ccccn3)nn2C)n1 [Example 13, 2-Methoxymethyl-5-(pyrimidin-5-ylamino)-pyrimidine-4-carboxylic acid (2-methyl-5-pyridin-2-yl-2H-pyrazol-3-yl)-amide]	256
O=C(Nc1cn(-c2ccccn2)cn1)c1nc(C2CC2)cnc1Nc1cncnc1 [Example 66, 6-Cyclopropyl-3-(pyrimidin-5-ylamino)-pyrazine-2-carboxylic acid (1-pyridin-2-yl-1H-imidazol-4-yl)-amide]	187
O=C(Nc1cc(-c2ccccn2)nn1CCO)c1nc(C2CC2)ccc1Nc1cncnc1 [Example 10, 6-Cyclopropyl-3-(pyrimidin-5-ylamino)-pyridine-2-carboxylic acid [2-(2-hydroxy-ethyl)-5-pyridin-2-yl-2H-pyrazol-3-yl]-amide]	2
O=C(Nc1cc(-c2ccccn2)nn1CCc1ccccc1)c1nc(C2CC2)ccc1Nc1cncnc1 [Example 17, 6-Cyclopropyl-3-(pyrimidin-5-ylamino)-pyridine-2-carboxylic acid (2-phenethyl-5-pyridin-2-yl-2H-pyrazol-3-yl)-amide]	5
CN(C)CCn1nc(NC(=O)c2nc(C3CC3)ccc2Nc2cncnc2)cc1-c1ccccn1 [Example 42, 6-Cyclopropyl-3-(pyrimidin-5-ylamino)-pyridine-2-carboxylic acid [1-(2-dimethylamino-ethyl)-5-pyridin-2-yl-1H-pyrazol-3-yl]-amide]	24
Cn1nc(-c2ccc(Cl)cn2)cc1NC(=O)c1nc(C2CC2)ccc1Nc1cncnc1 [Example 39, 6-Cyclopropyl-3-(pyrimidin-5-ylamino)-pyridine-2-carboxylic acid [5-(5-chloro-pyridin-2-yl)-2-methyl-2H-pyrazol-3-yl]-amide]	3
O=C(Nc1cc(-c2ccc(Cl)cc2)no1)c1nc(C2CC2)ccc1Nc1cncnc1 [Example 56, 6-Cyclopropyl-3-(pyrimidin-5-ylamino)-pyridine-2-carboxylic acid [3-(4-chloro-phenyl)-isoxazol-5-yl]-amide]	1450
O=C(Nc1ccc(-c2ccccn2)s1)c1nc(C2CC2)ccc1Nc1cncnc1 [Example 50, 6-Cyclopropyl-3-(pyrimidin-5-ylamino)-pyridine-2-carboxylic acid (5-pyridin-2-yl-thiophen-2-yl)-amide]	1
CC(C)(C)n1nc(-c2ccccn2)cc1NC(=O)c1nc(C2CC2)ccc1Nc1cncnc1 [Example 18, 6-Cyclopropyl-3-(pyrimidin-5-ylamino)-pyridine-2-carboxylic acid (2-tert-butyl-5-pyridin-2-yl-2H-pyrazol-3-yl)-amide]	13
COCc1ccc(Nc2cncnc2)c(C(=O)Nc2cc(-c3ccccn3)nn2CCO)n1 [Example 11, 6-Methoxymethyl-3-(pyrimidin-5-ylamino)-pyridine-2-carboxylic acid [2-(2-hydroxy-ethyl)-5-pyridin-2-yl-2H-pyrazol-3-yl]-amide]	5
Cn1nc(-c2ccccn2)cc1NC(=O)c1nc(C2CCCCC2)ncc1Nc1cncnc1 [Example 60, 2-Cyclohexyl-5-(pyrimidin-5-ylamino)-pyrimidine-4-carboxylic acid (2-methyl-5-pyridin-2-yl-2H-pyrazol-3-yl)-amide]	6
Cc1ccc(Nc2cncnc2)c(C(=O)Nc2ccn(-c3ccccc3)n2)n1 [Example 1, 6-Methyl-3-(pyrimidin-5-ylamino)-pyridine-2-carboxylic acid (1-phenyl-1H-pyrazol-3-yl)-amide]	90
O=C(Nc1nnc(-c2ccccn2)o1)c1nc(C2CC2)ccc1Nc1cncnc1 [Example 64, 6-Cyclopropyl-3-(pyrimidin-5-ylamino)-pyridine-2-carboxylic acid (5-pyridin-2-yl-[1,3,4]oxadiazol-2-yl)-amide]	2040
Cn1cncc1Cn1nc(-c2ccccn2)cc1NC(=O)c1nc(C2CC2)ccc1Nc1cncnc1 [Example 37, 6-Cyclopropyl-3-(pyrimidin-5-ylamino)-pyridine-2-carboxylic acid [2-(3-methyl-3H-imidazol-4-ylmethyl)-5-pyridin-2-yl-2H-pyrazol-3-yl]-amide]	2
CN(C)CCn1nc(-c2ccccn2)cc1NC(=O)c1nc(C2CC2)ccc1Nc1cncnc1 [Example 12, 6-Cyclopropyl-3-(pyrimidin-5-ylamino)-pyridine-2-carboxylic acid [2-(2-dimethylamino-ethyl)-5-pyridin-2-yl-2H-pyrazol-3-yl]-amide]	1
CCCn1nc(-c2ccccn2)cc1NC(=O)c1nc(C2CC2)ccc1Nc1cncnc1 [Example 23, 6-Cyclopropyl-3-(pyrimidin-5-ylamino)-pyridine-2-carboxylic acid (2-propyl-5-pyridin-2-yl-2H-pyrazol-3-yl)-amide]	2
CCOC(=O)Cn1nc(-c2ccccn2)cc1NC(=O)c1nc(C2CC2)ccc1Nc1cncnc1 [Example 15, (5-{[6-Cyclopropyl-3-(pyrimidin-5-ylamino)-pyridine-2-carbonyl]-amino}-3-pyridin-2-yl-pyrazol-1-yl)-acetic acid ethyl ester]	4
O=C(Nc1cc(-c2ccccc2)nn1CCO)c1nc(C2CC2)ccc1Nc1cncnc1 [Example 9, 6-Cyclopropyl-3-(pyrimidin-5-ylamino)-pyridine-2-carboxylic acid [2-(2-hydroxy-ethyl)-5-phenyl-2H-pyrazol-3-yl]-amide]	122
